The source of these data is ChEMBL document CHEMBL1201862, “PubChem BioAssay data set” (2004).

Some test systems named below: CAKI-1; COLO 205; HCC 2998; M14; MCF7; MDA-MB-231; NCI-H226; NCI/ADR-RES; OVCAR-5; PC-3; RPMI-8226; RXF 393; SF-539; SK-OV-3; SN12C; T47D; DMS-114; LXFL 529; SNB-78.
What all share (assay): NCI tumour cell line growth inhibition, 48 h

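These data come from cells grown in 96-well plates and exposed to compound for 48 hours at five concentrations. GI50 is the concentration that inhibits growth by half.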 Calls of active or inactive are those of the source. Cut-off read from the data, not from the text of the source: active = GI50 up to about 1.1 µM and inactive = higher.

For the compound `Cc1ccc(S(=O)(=O)NNC(=O)Nc2ccc(Cl)cc2)cc1`, the GI50 in the assay with CAKI-1, in the assay on COLO 205, in the assay with HCC 2998, in the assay with M14, with MCF7 and in the assay with MDA-MB-231 was > 100 µM (inactive) throughout. Besides, the GI50 in the assay on NCI-H226, in the assay with NCI/ADR-RES, with OVCAR-5, in the assay on PC-3, in the assay on RPMI-8226 and in the assay on RXF 393 was > 100 µM (inactive) each time. In addition, the GI50 in the assay on SF-539 was 54 µM (inactive); in the assay on SK-OV-3 it was > 100 µM (inactive); in the assay on SN12C, > 100 µM (inactive); in the assay on T47D it was > 100 µM (inactive).

With `O=c1ccc2ccc(CBr)cc2o1`, the GI50 in the assay with CAKI-1 was 1.55 µM (inactive); in the assay with HCC 2998, 3.34 µM (inactive); in the assay on M14, 2.8 µM (inactive); in the assay on MCF7, 1.9 µM (inactive); in the assay on MDA-MB-231 it was 1.72 µM (inactive); in the assay with NCI-H226, 10.7 µM (inactive). Further, the GI50 was 1.69 µM (inactive) in the assay on NCI/ADR-RES; 1.73 µM (inactive) with OVCAR-5; > 100 µM (inactive) in the assay on PC-3; 1.61 µM (inactive) in the assay on RPMI-8226; 1.94 µM (inactive) in the assay on RXF 393; 3.97 µM (inactive) with SF-539. In addition, the GI50 with SN12C was 2.69 µM (inactive); in the assay with T47D, 2.38 µM (inactive).

For `CC(=O)c1c(-c2ccccc2)c(-c2ccc(OCCN(C)C)cc2)n2ccccc12`, the GI50 was 18.5 µM (inactive) in the assay with CAKI-1; 14 µM (inactive) in the assay on COLO 205; 14.6 µM (inactive) in the assay on HCC 2998; 16.7 µM (inactive) with M14; 18 µM (inactive) in the assay with MCF7; 16.9 µM (inactive) in the assay with MDA-MB-231. Besides, the GI50 was 15.2 µM (inactive) with NCI-H226; 14.5 µM (inactive) in the assay with NCI/ADR-RES; 47.8 µM (inactive) with OVCAR-5; 16.2 µM (inactive) in the assay on PC-3; 20.8 µM (inactive) in the assay on RPMI-8226; 13.9 µM (inactive) with SF-539. Also, the GI50 in the assay with SK-OV-3 is 19.2 µM (inactive); in the assay on SN12C it was 16 µM (inactive); in the assay with T47D, 16.7 µM (inactive).

Consider `COc1ccc2nc(-n3c(/C=C/c4ccccc4O)nc4ccccc4c3=O)sc2c1`, for which the GI50 in the assay on CAKI-1 is 46 µM (inactive); with COLO 205 it was > 100 µM (inactive); in the assay with HCC 2998, > 100 µM (inactive); in the assay with M14 it was 33.6 µM (inactive); in the assay with MCF7, 47.5 µM (inactive); with MDA-MB-231, > 100 µM (inactive). In addition, the GI50 was 36 µM (inactive) in the assay with NCI-H226; 55.3 µM (inactive) with NCI/ADR-RES; > 100 µM (inactive) in the assay with OVCAR-5; 53.5 µM (inactive) with PC-3; 24.9 µM (inactive) in the assay on RPMI-8226; 71.6 µM (inactive) in the assay with RXF 393. Also, in the assay on SK-OV-3, the GI50 is > 100 µM (inactive).

With `COc1ccc(NC(C)=O)cc1N1C(=O)/C(=C\c2ccccc2)SC1c1cc(OC)c(OC)c(OC)c1` (configuration not stated), the GI50 in the assay on CAKI-1 is 34.7 µM (inactive); with COLO 205 it was 26.6 µM (inactive); in the assay on HCC 2998, 16.3 µM (inactive); in the assay with M14, 35.6 µM (inactive); in the assay with MCF7 it was 28.5 µM (inactive); in the assay with MDA-MB-231, 52.7 µM (inactive). In addition, the GI50 is 24 µM (inactive) in the assay on NCI-H226; 17.4 µM (inactive) with NCI/ADR-RES; 29 µM (inactive) with PC-3; 34 µM (inactive) in the assay on RPMI-8226; 27 µM (inactive) in the assay with RXF 393; 22.6 µM (inactive) with SF-539. The GI50 with SK-OV-3 was 41 µM (inactive); in the assay with SN12C, 80.5 µM (inactive); in the assay on T47D, 40.1 µM (inactive).

Take `C=C1CC(Cn2cc(Br)c(=O)[nH]c2=O)(c2ccc(Br)cc2)OC1=O` (configuration not stated): the GI50 in the assay with CAKI-1 was 2.38 µM (inactive); in the assay with COLO 205 it was 1.53 µM (inactive); in the assay on HCC 2998, 3.48 µM (inactive); with M14 it was 1.59 µM (inactive); with MCF7 it was 2.61 µM (inactive); in the assay on MDA-MB-231, 4.47 µM (inactive). Moreover, the GI50 is 13.4 µM (inactive) with NCI-H226; 2.59 µM (inactive) with NCI/ADR-RES; 6.38 µM (inactive) in the assay with OVCAR-5; 3.56 µM (inactive) in the assay on PC-3; 0.331 µM (active) in the assay on RPMI-8226; 6.44 µM (inactive) with SF-539. Besides, the GI50 was 12.2 µM (inactive) with SK-OV-3, 6.81 µM (inactive) in the assay with SN12C and 2.03 µM (inactive) with T47D.

Take `Cc1ccc(S(=O)(=O)OCCN(CCOS(=O)(=O)c2ccc(C)cc2)c2ccc(C=O)cc2)cc1`: the GI50 is 21.1 µM (inactive) with CAKI-1; 28.1 µM (inactive) in the assay with COLO 205; 28.7 µM (inactive) in the assay with HCC 2998; 32.4 µM (inactive) in the assay on M14; 30.7 µM (inactive) with MCF7; 23.8 µM (inactive) in the assay with MDA-MB-231. Moreover, the GI50 in the assay on NCI/ADR-RES was 36.2 µM (inactive); with OVCAR-5, 25.3 µM (inactive); with PC-3, 32.7 µM (inactive); in the assay on RPMI-8226, 38.4 µM (inactive); with RXF 393 it was 15.7 µM (inactive); in the assay on SF-539 it was 24.8 µM (inactive). For the same compound, the GI50 in the assay with T47D was 40.7 µM (inactive).

Take `O/N=C\c1cc(O)c(O)c(/C=N/O)c1`: the GI50 was 28.6 µM (inactive) in the assay with CAKI-1; 34.4 µM (inactive) in the assay with COLO 205; 27.5 µM (inactive) in the assay with M14; 35.5 µM (inactive) in the assay with MCF7; 56.5 µM (inactive) in the assay with MDA-MB-231; 32.9 µM (inactive) in the assay with NCI-H226. For the same compound, the GI50 was 32 µM (inactive) in the assay with NCI/ADR-RES; 96.2 µM (inactive) in the assay with OVCAR-5; 33.3 µM (inactive) in the assay with PC-3; 11.8 µM (inactive) in the assay on RPMI-8226; 25.6 µM (inactive) with RXF 393; 34.4 µM (inactive) in the assay with SF-539. Moreover, the results for the GI50 with SK-OV-3, with SN12C and in the assay with T47D were 33.7 µM (inactive), 27.2 µM (inactive) and 36.1 µM (inactive), respectively.

For the compound `CO[C@H]1SC[C@H](OC(C)=O)[C@H](OC(C)=O)[C@H]1OC(C)=O`, the GI50 in the assay on CAKI-1, in the assay with COLO 205, in the assay with HCC 2998, in the assay with M14, with MCF7 and in the assay with MDA-MB-231 was > 100 µM (inactive) in each case. The GI50 in the assay with NCI-H226, in the assay with NCI/ADR-RES, in the assay with RPMI-8226, in the assay with SF-539, in the assay on SN12C and in the assay on T47D was > 100 µM (inactive) in each case.

Consider `COC(=O)C1=Nc2c(C)nn(-c3ccccc3)c2N=C(c2ccccc2)C1`, for which the GI50 in the assay with CAKI-1, in the assay with COLO 205, with HCC 2998, with M14, in the assay on MCF7 and in the assay with MDA-MB-231 was > 10 µM (inactive) in each case. For the same compound, the GI50 in the assay with NCI/ADR-RES was > 10 µM (inactive); with OVCAR-5, 0.001 µM (active); with PC-3, > 10 µM (inactive); with RPMI-8226, > 10 µM (inactive); with SF-539, > 10 µM (inactive); in the assay with SK-OV-3, > 10 µM (inactive). Also, the GI50 with SN12C and in the assay on T47D was > 10 µM (inactive) each time.

`CC(=O)C(CN1CCCCC1)C(c1ccccc1)c1c(O)c2ccccc2oc1=O` (configuration not stated): the GI50 with CAKI-1, in the assay with COLO 205, in the assay on HCC 2998, in the assay with M14, in the assay with MCF7 and in the assay with MDA-MB-231 was > 100 µM (inactive) throughout. For the same compound, the GI50 in the assay on NCI-H226, with NCI/ADR-RES, in the assay on OVCAR-5, with PC-3, with RPMI-8226 and in the assay with RXF 393 was > 100 µM (inactive) in each case. The GI50 in the assay on SF-539, with SK-OV-3, with SN12C and with T47D was > 100 µM (inactive) throughout.

Consider `CCCCCCCCCCCCSC(=S)c1c(C)[nH]n(CCCCCCCCCCCC)c1=O`, for which the GI50 in the assay on CAKI-1 was > 100 µM (inactive); in the assay on COLO 205, > 100 µM (inactive); with DMS-114, 46.1 µM (inactive); in the assay with HCC 2998 it was > 100 µM (inactive); in the assay on LXFL 529, 67.9 µM (inactive); with M14, > 10 µM (inactive). The GI50 is > 100 µM (inactive) in the assay with NCI-H226; > 100 µM (inactive) with OVCAR-5; 94.8 µM (inactive) in the assay on RPMI-8226; > 100 µM (inactive) in the assay on SF-539; > 100 µM (inactive) with SK-OV-3; 77.1 µM (inactive) in the assay with SN12C. Further, the GI50 in the assay on SNB-78 was > 100 µM (inactive).

Consider `O=c1c(C(c2ccc(OCc3ccccc3)cc2)c2c(O)oc3ccccc3c2=O)c(O)oc2ccccc12`, for which the GI50 in the assay on CAKI-1 is 27.2 µM (inactive); in the assay with COLO 205, 46 µM (inactive); with HCC 2998, 35.1 µM (inactive); with M14, 48.1 µM (inactive); with MCF7 it was 48.4 µM (inactive); in the assay on MDA-MB-231 it was 27 µM (inactive). Besides, the GI50 was 30.7 µM (inactive) in the assay on NCI-H226; 34.2 µM (inactive) in the assay on NCI/ADR-RES; 75.2 µM (inactive) with OVCAR-5; 39.7 µM (inactive) with PC-3; 43.1 µM (inactive) in the assay with RPMI-8226; > 100 µM (inactive) in the assay with RXF 393. The GI50 is 39.6 µM (inactive) in the assay on SF-539, 50.5 µM (inactive) with SK-OV-3, 30.4 µM (inactive) with SN12C and 81.1 µM (inactive) in the assay on T47D.
